Patent US9375424B2, “Compounds that treat malaria and prevent malaria transmission” (The United States of America, as represented by the …, priority 2009, dated 2016)
Counter-ions that a name gives are not always drawn. Like-named read-outs stand apart in the source and are kept apart here.

Legend:
[1] = system: P. falciparum lines; experiment: qHTS SYBR Green Plasmodium proliferation assay in infected erythrocytes (seven parasite lines); assay type: cell-based; conditions: Erythrocyte, read-out: IC50, inhibition of proliferation in all parasite lines
Procedure: The P. falciparum lines used in this study have been described previously (Mu J, et al. Multiple transporters associated with malaria parasite responses to chloroquine and quinine. Mol Microbiol 2003;49:977-989). […] Briefly, 3 μl culture medium was dispensed into 1536-well black clear-bottom plates (Aurora Biotechnologies) using a Multidrop Combi (Thermo Fisher Scientific Inc.); 23-nL compounds in DMSO were added by a pin tool (Kalypsys), and 5 μl of P. falciparum-infected RBCs (0.3% parasitemia, 2.5% hematocrit final concentration) were added. The plates were incubated at 37° C. in a humidified incubator in 5% CO2 for 72 h, and 2 μl lysis buffer (20 mM Tris-HCl, 10 mM EDTA, 0.16% saponin, 1.6% triton-X, 10× SYBR Green I supplied as 10,000× final concentration by Invitrogen) was added to each well. The plates were mixed for 25 sec with gentle shaking and incubated overnight at room temperature in the dark. The following morning, fluorescence intensity at 485 (14) nm excitation and 535 (25) nm emission wavelengths was measured on an En Vision (Perkin Elmer) plate reader. […] The plates were incubated at 37° C. under 5% CO2, 5% 02, and 90% N2 for 72 h, incubated for another 30 min after addition of 50 μl lysis buffer, and read in a FLUOstar OPTIMA reader (BMG Labtech). Data were analyzed using software at the NIAID Bioinformatic Resources (niaid-biocluster.niaid.nih.gov/cgi-bin/bipod2/index.cgi). Parasite proliferation was measured after 72 hr of incubation (corresponding to 1.5 generations of intra-erythrocytic parasite growth), with each compound tested at seven or eight five-fold dilutions beginning at 29 μM. […] The potencies of known antimalarial agents had similar values determined by the assay in 96-well plate format. […] Although the determined potencies of 4 were lower, the relative potency between lines sensitive to 4, HB3, 3D7, and D10 were clearly distinguished from resistant lines. […] The potencies of compounds scored as active or inconclusive in both replicates correlated well indicating good repeatability in determining IC50 values between replicates.

[2] = system: Plasmodium yoelii nigeriensis; assay type: in vivo; conditions: for oocyst formation: mosquito feeding 1 hr after treatment (FIG. 1A), untreated control average 460 oocysts per mosquito
Procedure: Mice infected with Plasmodium yoelii nigeriensis were treated with drugs in different concentrations for various time periods and were exposed to mosquitoes. Oocysts were counted from dissected midgut 9-10 days after feeding. FIG. 1A, the number of oocysts from mosquitoes fed on mice treated with different TAA compounds for 1 hour. CAR, carbita Pentane (100 mg/kg); CHL, chlorpromazine (30 mg/kg); DEQ, dequalinium dichloride (10 mg/kg); Dox, doxipin hydrochloride (30 mg/kg); Ima, Imipramine (100 mg/kg), KET, ketotifen (100 mg/kg); Pro, protryptiline hydrochloride (10 mg/kg). FIG. 1B, the number of oocysts from mosquitoes fed on mice treated with different concentrations of ketotifen (KET) for 1 hour, compared with those treated with standard anti-malarial drugs, primaquine (PQ, 5 and 10 mg/kg), arteminisinin (ART, 5 mg/kg) and chloroquine (CQ, 10 mg/kg). FIG. 1C, the number of oocysts from mosquitoes fed on mice treated with a single dose of 0.5 mg/kg or 0.1 mg/kg of ketotifen (KET) for 1, 6 or 24 hours. FIG. 1D, the number of oocysts from mosquitoes fed on mice treated with two doses of 0.5 mg/kg or 0.1 mg/kg (filled symbol) of ketotifen (KET) for 1, 6 or 24 hours. CON, no drug control.
For testing transmission-blocking activity in vivo, CD-1 strain female mice, aged 6-8 weeks old, were infected intra-peritoneally (i.p.) with 5×106 P. yoelii nigeriensis. In a preliminary experiment, on day 3 post infection the animals were administrated i.p. a single dose of tricyclic antihistamine and antidepressants (TAA) compound or pharmaceutical-grade phosphate buffer saline (pH 7.4). Starting 1 hr after the administration of the TAA compound, the animals were anesthetized and brought into contact with a colony of Anopheles stephensimosquitoes. The mosquitoes were allowed to feed on the mice. Unfed or partially engorged mosquitoes were removed from the cages. The mosquitoes were maintained for 9-10 days 24 ±1° C. and 80-90% relative humidity. The gametocytocidal activity of the test compound was accessed on the basis of the oocyst counts in mosquitoes fed on treated animals and a control group. In subsequent experiments, the gametocytocidal action of ketotifin at different concentrations and doses was evaluated similarly. One group was given a single dose of 0.1, 0.5, 1, 5, 10, 30 or 60 mg/kg on day 3 post infection and subjected to mosquito feeding 1 hr after compound administration. Primaquine, chloroquine and arteminsin were used as reference drugs. The other group was given one dose or two doses of 0.1 or 0.5 mg/kg at 4 hr interval and subjected to mosquito feeding 1, 6 or 24 hrs after the final drug administration.

[3] = system: P. falciparum gametocytes; experiment: killing of P. falciparum gametocytes in vitro; assay type: cell-based, Plasmodium falciparum
[4] = all seven parasite lines, 72 h incubation
[5] = 5 mg/kg single dose, treatment for 1 hr
[6] = two doses of 0.5 mg/kg at 4 hours interval, 24-hour treatment

Q: Which IC50 [1, 4] does the source give for `Cc1cc(N)c2ccccc2[n+]1CCCCCCCCCC[n+]1c(C)cc(N)c2ccccc21` [dequalinium dichloride] here?
A: < 2 µM

Q: Which “average number of oocysts per mosquito” value ([2]; 1 mg/kg single dose, treatment for 1 hr (FIG. 1B)) does the source give for `CN1CCC(=C2c3ccccc3CC(=O)c3sccc32)CC1` [ketotifen] here?
A: 34 oocysts per mosquito

Q: And the “mosquitoes that had oocysts” value [2, 5]?
A: 2 of 44

Q: And the oocyst counts [2, 5]?
A: 0.13 oocysts per mosquito

Q: And the oocyst development ([2]; 5 mg/kg single dose, treatment for 1 hr (FIG. 1B))?
A: almost completely blocked oocyst development

Q: What about the oocyst formation ([2]; 100 mg/kg single dose i.p.) of the same compound?
A: strong reduction in oocyst formation

Q: And the “dose achieving similar reduction in oocyst count to primaquine, as share of the primaquine dose” value ([2]; relative to primaquine dose)?
A: 10%

Q: What about the oocyst counts ([2]; single dose 0.1 mg/kg, 24 hours prior to mosquito feeding (FIG. 1C)) of the same compound?
A: 82 oocysts per mosquito

Q: And the oocyst counts ([2]; single dose 0.5 mg/kg, 24 hours prior to mosquito feeding (FIG. 1C))?
A: 12 oocysts per mosquito

Q: What about the oocyst counts ([2]; two doses of 0.1 mg/kg at 4 hours interval, 24-hour treatment time (FIG. 1D)) of the same compound?
A: 80 oocysts per mosquito

Q: And the “mosquitoes that had oocysts” value [2, 6]?
A: 4 of 23

Q: What about the “oocysts in the mosquitoes” value [2, 6] of the same compound?
A: almost completely eliminated oocysts

Q: And the oocyst counts ([2]; two doses of 0.5 mg/kg at 4 hours interval, 24-hour treatment (FIG. 1D))?
A: 2 oocysts per mosquito

Q: What about the “concentration that completely kills P. falciparum gametocytes in vitro” value [3] of the same compound?
A: 0.5 µM

Q: How did the IC50 [1, 4] turn out when `CC(=O)O[C@H]1C(=O)[C@@]2(C)[C@H]([C@H](OC(=O)c3ccccc3)[C@]3(O)C[C@H](OC(=O)[C@H](O)[C@@H](NC(=O)c4ccccc4)c4ccccc4)C(C)=C1C3(C)C)[C@]1(OC(C)=O)CO[C@@H]1C[C@@H]2O` [taxol] was run?
A: < 2 µM

Q: With `CCN(CC)CCCC(C)Nc1c2ccc(Cl)cc2nc2ccc(OC)cc12` (stereo not shown) [quinacrine] as the compound, how does the IC50 ([1]; 72 h) read?
A: < 2 µM

Q: Which “mosquitoes that had oocysts” value [2, 5] does the source give for `COc1cc(NC(C)CCCN)c2ncccc2c1` (stereo not shown) [primaquine] here?
A: 7 of 21

Q: What about the oocyst counts [2, 5] of the same compound?
A: 6 oocysts per mosquito

Q: `CNCCCC1c2ccccc2C=Cc2ccccc21` [protryptiline hydrochloride] was tested. Which oocyst formation ([2]; 10 mg/kg single dose i.p.) did it give?
A: strong reduction in oocyst formation
